Each structure is given as a SMILES string.

The source of these data is US10703740B2, “Substituted benzimidazoles, their preparation and their use as pharmaceuticals” (NEOMED Institute, priority 2015, dated 2020).

The target of one assay is BRD4(BD1) (Homo sapiens (Human), UniProt O60885). Kind of assay: In vitro bromodomain inhibition assay (AlphaLISA). The assay is classed as binding. The note with it: His-tagged BRD4 BD1 200 nM, biotinylated H4-tetraacetyl peptide 200 nM. The procedure:
To measure activity of bromodomain inhibitors, a His-epitope tagged BRD4 BD149-170 is purchased from BPS Bioscience. BRD4 binding and inhibition is assessed by monitoring the engagement of biotinylated H4-tetraacetyl peptide (H4K5/8/12/16; AnaSpec #64989-025) with the target using the AlphaLISA technology (Perkin-Elmer). Specifically, in a 384 well OptiPlate, BRD4(BD1) (200 nM final) is pre-incubated with either DMSO (final 1.0% DMSO) or a compound dilution series in DMSO. All reagents are diluted in assay buffer containing 50 mM HEPES (pH 7.4), 100 mM NaCl, 0.1% (w/v) BSA, and 0.05% (w/v) CHAPS. After a 30 minute incubation at rt, H4 peptide is added (200 nM final) and the reaction is incubated an additional 30 minutes at rt. Alpha streptavidin donor beads and AlphaLISA nickel chelate acceptor beads are then added to a final concentration of 10 μg/mL each. After one hour, equilibration plates are read on an Envision instrument and IC50s calculated using a four parameter non-linear curve fit (results are shown in Table 1).
For orientation: In Alpha technology, singlet oxygen from a donor bead excites a nearby acceptor bead.

Assay [1] has as its system human C-Myc transcription in MV-4-11 cells. Kind of assay: Transcription of human C-Myc in human leukemic MV-4-11 cells (QuantiGene 2.0). The assay is classed as cell-based. The note with it: Homo sapiens, MV4-11, 4 h, inhibition of C-Myc mRNA, 4 hours treatment, read-out: IC50 MV-4-11 Cell. The procedure: The effect of compounds on transcription of human C-Myc gene is monitored in human B-myelomonocytic leukemia cell line MV-4-11 (from American Type Culture Collection (ATCC), Manassas, Va., USA) using QuantiGene 2.0 assay kit (Affymetrix, Santa Clara, Calif., USA).
Typically, 8,000 MV-4-11 cells are plated in sterile 96-well plates (Costar #3598 from Fisher Scientific Canada, Ottawa, Ontario, Canada) in Iscove's medium supplemented with 10% fetal bovine serum, glutamine (2 mM), and penicillin (100 I.U.) and streptomycin (100 μg/mL) (all from Wisent Inc., St. Bruno, Quebec, Canada). Compounds are dissolved in DMSO at 30 mM. A series of 1:3 dilutions are first made in DMSO, and further 1:100 dilutions are made in serum-containing cell culture media. The final concentration of DMSO is 0.1% in cell culture media. After cells are treated with various concentrations of test compound for 4 hours, cells are lysed using Quantigene 2.0 sample processing kit (# QS0100). C-Myc mRNA is detected using a QuantiGene 2.0 assay kit (# QS0009) with gene-specific probe to human C-Myc (# SA-50182) following the manufacturer's recommendations. Luminescene signals are read on Flexstation II microplate reader (Molecular Devices, Sunnyvale, Calif., USA).

Consider `Cc1cc(-c2ccc3nc(C4CCC4)n(CCOC(F)(F)F)c3c2)cn(C)c1=O` [Compound 6, 5-[2-cyclobutyl-3-[2-(trifluoromethoxy)ethyl]benzimidazol-5-yl]-1,3-dimethyl-pyridin-2-one], for which the figures for the IC50 (against BRD4(BD1); in assay [1]) were 91 nM and 56 nM, respectively.

As for `Cc1cc(-c2ccc3nc(C)n(CCOC(F)(F)F)c3c2)cn(C)c1=O` [Compound 5, 1,3-dimethyl-5-[2-methyl-3-[2-(trifluoromethoxy)ethyl]benzimidazol-5-yl]pyridin-2-one], the figures for the concentration for half-maximal inhibition (IC50) (against BRD4(BD1); in assay [1]) were 190 nM and 230 nM, respectively.

Turning to `COCCn1c(C2CC2)nc2ccc(-c3cc(C)c(=O)n(C)c3)cc21` [Compound 7, 5-[2-cyclopropyl-3-(2-methoxyethyl)benzimidazol-5-yl]-1,3-dimethyl-pyridin-2-one], the half-inhibitory concentration (IC50) (usually the concentration needed to halve the response being measured) on BRD4(BD1) came to 280 nM; in assay [1], 520 nM.

Consider `CC(=O)N1CCC(c2nc3ccc(-c4cc(C)c(=O)n(C)c4)cc3n2CCOC(F)(F)F)CC1` [Compound 4, 5-[2-(1-acetyl-4-piperidyl)-3-[2-(trifluoromethoxy)ethyl]benzimidazol-5-yl]-1,3-dimethylpyridin-2-one], for which the half-maximal inhibitory concentration (IC50) against BRD4(BD1) was found to be 130 nM; in assay [1] it was 89 nM.

Regarding `COC[C@@H](C)n1c(C)nc2ccc(-c3cc(C)c(=O)n(C)c3)cc21` [Compound 11, 5-[3-[(1R)-2-methoxy-1-methyl-ethyl]-2-methyl-benzimidazol-5-yl]-1,3-dimethyl pyridin-2-one], the IC50 against BRD4(BD1) came out at 98 nM; in assay [1], 170 nM.

With `COC[C@@H](C)n1c(C2CCOCC2)nc2ccc(-c3cc(C)c(=O)n(C)c3)cc21` [Compound 10, 5-[3-[(1R)-2-methoxy-1-methyl-ethyl]-2-tetrahydropyran-4-yl-benzimidazol-5-yl]-1,3-dimethyl-pyridin-2-one], the figures for the IC50 (at BRD4(BD1); in assay [1]) were 99 nM and 62 nM, respectively.

On to `Cc1cc(-c2ccc3nc(C4CCOCC4)n(CCOC(F)(F)F)c3c2)cn(C)c1=O` [Compound 1, 1,3-dimethyl-5-[2-tetrahydropyran-4-yl-3-[2-(trifluoromethoxy)ethyl]benzimidazol-5-yl]pyridin-2-one], for which the IC50 against BRD4(BD1) is 140 nM; in assay [1], 76 nM.

In the case of `COCCn1c(C2CCOCC2)nc2ccc(-c3cc(C)c(=O)n(C)c3)cc21` [Compound 9, 5-[3-(2-methoxyethyl)-2-tetrahydropyran-4-yl-benzimidazol-5-yl]-1,3-dimethyl pyridin-2-one], the IC50 was 220 nM against BRD4(BD1) and 250 nM in assay [1].

Take `Cn1cc(-c2ccc3nc(C4CC4)n(CCOC(F)(F)F)c3c2)cc(C(F)(F)F)c1=O` [Compound 13, 5-[2-cyclopropyl-3-[2-(trifluoromethoxy)ethyl]benzimidazol-5-yl]-1-methyl-3-(trifluoromethyl)pyridin-2-one]: the IC50 against BRD4(BD1) amounted to 810 nM; in assay [1], 850 nM.

Turning to `Cc1cc(-c2ccc3nc(C4CC4)n(CCOC(F)(F)F)c3c2)cn(C)c1=O` [Compound 2, 5-[2-cyclopropyl-3-[2-(trifluoromethoxy)ethyl]benzimidazol-5-yl]-1,3-dimethylpyridin-2-one], the IC50 is 190 nM on BRD4(BD1) and 86 nM in assay [1].

As to `COCCn1c(C)nc2ccc(-c3cc(C)c(=O)n(C)c3)cc21` [Compound 8, 5-[3-(2-methoxyethyl)-2-methyl-benzimidazol-5-yl]-1,3-dimethylpyridin-2-one], the IC50 on BRD4(BD1) is 210 nM; in assay [1], 790 nM.

Consider `Cc1cc(-c2ccc3ncn(CCOC(F)(F)F)c3c2)cn(C)c1=O` [Compound 3, 1,3-dimethyl-5-[3-[2-(trifluoromethoxy)ethyl]benzimidazol-5-yl]pyridin-2-one], for which the IC50 at BRD4(BD1) was found to be 310 nM; in assay [1] it was 95 nM.

As to `COC[C@@H](C)n1cnc2ccc(-c3cc(C)c(=O)n(C)c3)cc21` [Compound 12, 5-[3-[(1R)-2-methoxy-1-methyl-ethyl]benzimidazol-5-yl]-1,3-dimethyl-pyridin-2-one], the IC50 against BRD4(BD1) was 330 nM; in assay [1] it was 550 nM.

For the compound `COC[C@@H](C)n1c(C2CC2)nc2ccc(-c3cc(C)c(=O)n(C)c3)cc21` [Compound 15, 5-[2-cyclopropyl-3-[(1R)-2-methoxy-1-methylethyl]benzimidazol-5-yl]-1,3-dimethyl pyridin-2-one], the IC50 was 100 nM against BRD4(BD1) and 240 nM in assay [1].

In the case of `CCOC[C@@H](C)n1c(C2CCOCC2)nc2ccc(-c3cc(C)c(=O)n(C)c3)cc21` [Compound 47, (R)-5-(1-(1-ethoxypropan-2-yl)-2-(tetrahydro-2H-pyran-4-yl)-1H-benzo[d]imidazol-6-yl)-1,3-dimethylpyridin-2(1H)-one], in assay [1], the IC50 turned out to be 27 nM.
